Assay results reported in patent US11420940B2, “4-carboxamido-isoindolinone derivatives as selective parp-1 inhibitors” (NERVIANO MEDICAL SCIENCES S.r.l, priority 2012, dated 2022).

What was measured:
[1] = Pharmacokinetics and oral bioavailability in the mouse; format: in vivo; conditions: 10 mg/kg, oral vs IV dose-normalized AUC
[2] = test system: Capan-1 human pancreatic cancer tumors; assay: In vivo efficacy as single agent, Capan-1 BRCA-2 mutated mouse model; conditions: 75 mg/kg oral, daily (schedule 1-8 or 1-10)
Text: Balb, athymic Nu/Nu male mice, from Harlan (Italy), were maintained in agreement with the European Communities Council Directive no. 86/609/EEC concerning the protection of animals used for experimental or other scientific purposes, in cages with paper filter cover, food and bedding sterilized and acidified water. Fragments of Capan-1 human pancreatic cancer tumors were implanted subcutaneously. […] Each group included seven animals. The treatment started one day after randomization. Compound of formula (I) was administered by oral route as a methocel suspension at the indicated doses and times. Tumor dimension was measured regularly by calipers during the experiments and tumor mass was calculated as described in Simeoni M. et al., Cancer Res 64, 1094-1101 (2004).

[3] = test system: BRCA-mutated breast, ovarian and prostate cancer; conditions: 19 patients with BRCA mutations and breast; cited from earlier work

| F on AUC [1] | SMILES | Max TGI (%) [2] | objective response rate [3] |
| --- | --- | --- | --- |
| 57% | NC(=O)c1cccc2c1C(=O)N(C1CCN(Cc3ccoc3)CC1)C2 [(14), 2-(1-furan-3-ylmethyl-piperidin-4-yl)-3-oxo-2,3-dihydro-1H-isoindole-4-carboxylic acid amide] |  |  |
| 37% | NC(=O)c1cccc2c1C(=O)N(C1CCN(Cc3ccc[nH]3)CC1)C2 [(16), 3-oxo-2-[1-(1H-pyrrol-2-ylmethyl)-piperidin-4-yl]-2,3-dihydro-1H-isoindole-4-carboxylic acid amide] |  |  |

Further lines, the compound ahead of its results:

| SMILES | F on AUC [1] | Max TGI (%) [2] | objective response rate [3] |
| --- | --- | --- | --- |
| NC(=O)c1cccc2c1C(=O)N(CCN1CCc3ccccc3C1)C2 [(3), 2-[2-(3,4-dihydro-1H-isoquinolin-2-yl)-ethyl]-3-oxo-2,3-dihydro-1H-isoindole-4-carboxylic acid amide] | 30% |  |  |
| NC(=O)c1cccc2c1C(=O)N(C1CCN(C3CCCCC3)CC1)C2 [(11), 2-(1-cyclohexyl-piperidin-4-yl)-3-oxo-2,3-dihydro-1H-isoindole-4-carboxylic acid amide] | 100% | 42% |  |
| NC(=O)c1cccc2c1C(=O)N(C1CCN(Cc3ccccn3)CC1)C2 [(15), 3-oxo-2-(1-pyridin-2-ylmethyl-piperidin-4-yl)-2,3-dihydro-1H-isoindole-4-carboxylic acid amide] | 68% | 54% |  |
| O=C(c1cc(Cc2n[nH]c(=O)c3ccccc23)ccc1F)N1CCN(C(=O)C2CC2)CC1 [Olaparib] |  |  | 47% |
